From patent US5137890A, “4-phenyl tetrahydropyrido(4,3-d)pyrimidines” (Ortho Pharmaceutical Corporation, priority 1990, dated 1992)
Counter-ions that a name gives are not always drawn.

Key:
[1] = test system: Ethanol-Induced Lesions; assay: Cytoprotection: inhibition of ethanol-induced lesions; assay type: in vivo, male, Charles River rats; conditions: Rattus norvegicus, oral, 1 hour before 50% ethanol
Experimental: Using the procedures of Robert, A. et al., Gastroenterology 77, 433(1979), male, Charles River rats weighing between 140 and 220 g were fasted overnight, but allowed water ad libitum. The rats were, however, deprived of water during the experiment. The rats were weighed and pretreated orally with the example compounds at the doses shown below in Table 1. One hour later, the necrotizing agent, 50% ethanol, was administered orally in a dose volume of 1 ml/animal. After an additional hour, the rats were sacrificed with CO2, the stomachs removed, inflated with distilled water, opened along the greater curvature and laid out on a flat surface. The presence of mucosal bleeding was noted and after wiping off the mucosa, the presence of submucosal bleeding was also noted. The incidence of lesions in the mucosa and the submucosa was statistically analyzed by the method of Chisquares using Yates correction.

[2] = test system: 80 mg/kg aspirin; assay: Cytoprotection vs. 80 mg/kg aspirin (footnotes of Table 1); assay type: in vivo

SMILES | inhibition in vivo at 10 mg/kg [1] [%] | ED50 [1] [mg/kg] | also measured
CC(=O)N1CCc2nc(C)nc(-c3ccc(Cl)cc3)c2C1 [Example 1, 6-Acetyl-4-(4-chlorophenyl)-2-methyl-5,6,7,8-tetrahydropyrido[4,3-d]pyrimidine] | 20 | – | –
CC(=O)N1CCc2nc(C)nc(-c3ccc(F)cc3)c2C1 [Example 2, 6-Acetyl-4-(4-fluorophenyl)-2-methyl-5,6,-7,8-tetrahydropyrido[4,3-d]pyrimidine Monohydrochloride Monohydrate] | 100 | – | 8/10 vs. 80 mg/kg aspirin ([2]; at 20 mg/kg vs. 80 mg/kg aspirin): 8/10
CCN1CCc2nc(Nc3ccc(C(F)(F)F)cc3)nc(-c3ccc(Cl)cc3)c2C1 [Example 5, 4-(4-chlorophenyl)-6-ethyl-2-(4-trifluromethylphenylamino)-5,6,7,8-tetrahydropyrido[4,3-d]pyrimidine dihydrochloride monohydrate] | 20 | – | –
CCNc1nc2c(c(-c3ccc(F)cc3)n1)CN(C(C)=O)CC2 [Example 7, 6-Acetyl-4-(4-fluorophenyl)-2-ethylamino-5,6,7,8-tetrahydropyrido[4,3-d]pyrimidine] | – | 5 | –
C=CCN1CCc2nc(NCC)nc(-c3ccc(Cl)cc3)c2C1 [Example 9, 6-Allyl-4-(4-chlorophenyl)-2-ethylamino-5,6,7,8-tetrahydropyrido[4,3-d]pyrimidine] | 80 | – | –
CCNc1nc2c(c(-c3ccc(Cl)cc3)n1)CN(Cc1ccccc1)CC2 [Example 10, 6-Benzyl-4-(4-chlorophenyl)-2-ethylamino-5,6,7,8-tetrahydropyrido[4,3-d]pyrimidine] | 20 | – | –
CCNc1nc2c(c(-c3ccc(Cl)cc3)n1)CN(CC)CC2 [Example 11, 4-(4-Chlorophenyl)-6-ethyl-2-ethylamino-5,6,7,8-tetrahydropyrido[4,3-d]pyrimidine] | – | 9.5 | –
CCNc1nc2c(c(-c3ccc(F)cc3)n1)CNCC2.Cl [Example 12, 2-Ethylamino-4-(4-fluorophenyl)5,6,7,8-tetrahydropyrido[4,3-d]pyrimidine Monohydrochloride] | – | 4.7 | 8/10 vs. 80 mg/kg aspirin ([2]; at 10 mg/kg vs. 80 mg/kg aspirin): 8/10
CC(=O)N1CCc2nc(N)nc(-c3ccc(Cl)cc3)c2C1 [Example 13, 6-Acetyl-2-amino-4-(4-chlorophenyl)-5,6,7,8-tetrahydropyrido[4,3-d]pyrimidine] | – | ~3 | –
CC(=O)N1CCc2nc(N)nc(-c3ccc(F)cc3)c2C1 [Example 14, 6-Acetyl-2-amino-4-(4-fluorophenyl)-5,6,7,8-tetrahydropyrido[4,3-d]pyrimidine Monohydrate] | 80 | – | –
Nc1nc2c(c(-c3ccc(Cl)cc3)n1)CNCC2 [Example 15, 2-Amino-4-(4-chlorophenyl)-5,6,7,8-tetrahydropyrido[4,3-d]pyrimidine Dihydrochloride] | 40 | – | –
Nc1nc2c(c(-c3ccc(F)cc3)n1)CNCC2 [Example 16, 2-amino-4-(4-fluorophenyl)-5,6,7,8-tetrahydropyrido[4,3-d]pyrimidine dihydrochloride hemihydrate] | 80 | – | –
CCN1CCc2nc(N)nc(-c3ccc(Cl)cc3)c2C1.Cl.Cl [Example 17, 2-Amino-4-(4-chlorophenyl)-6-ethyl-5,6,7,8-tetrahydropyrido[4,3-d]pyrimidine Dihydrochloride] | – | 3.2 | ED50 [2]: 14.5 mg/kg
CCN1CCc2nc(N)nc(-c3ccc(F)cc3)c2C1 [Example 18, 2-Amino-4-(4-fluorophenyl)-6-ethyl-5,6,7,8-tetrahydropyrido[4,3-d]pyrimidine] | – | 3.7 | 8/10 v. 80 mg/kg aspirin ([2]; at 40 mg/kg v. 80 mg/kg aspirin): 8/10
CCCN1CCc2nc(N)nc(-c3ccc(Cl)cc3)c2C1 [Example 19, 2-Amino-4-(4-chlorophenyl)-6-propyl-5,6,7,8-tetrahydropyrido[4,3-d]-pyrimidine Dihydrochloride 1/4 Hydrate] | – | 2.7 | –
C=CCN1CCc2nc(N)nc(-c3ccc(Cl)cc3)c2C1.Cl.Cl [Example 20, 6-Allyl-2-amino-4-(4-chlorophenyl)-5,6,7,8-tetrahydropyrido[4,3-d]pyrimidine Dihydrochloride] | – | 7.9 | –
C=CCN1CCc2nc(N)nc(-c3ccc(F)cc3)c2C1.Cl.Cl [Example 21, 6-Allyl-2-amino-4-(4-fluorophenyl)-5,6,7,8-tetrahydropyrido[4,3-d]pyrimidine Dihydrochloride] | – | 5 | –
CN1CCc2nc(N)nc(-c3ccc(Cl)cc3)c2C1 [Example 22, 2-Amino-4-(4-chlorophenyl)-6-methyl-5,6,7,8-tetrahydropyrido[4,3-d]pyrimidine 1/4 Hydrate] | 100 | – | –
CC(=O)N1CCc2nc(N)nc(-c3ccccc3)c2C1.O [Example 23, 6-Acetyl-2-amino-4-phenyl-5,6,7,8-tetrahydropyrido[4,3-d]pyrimidine Monohydrate] | – | 2.3 | ED50 [2]: 9.5 mg/kg
CC(=O)N1CCc2nc(C)nc(-c3ccc(C)cc3)c2C1 [Example 24, 6-Acetyl-2-methyl-4-(4-methylphenyl)-5,6,7,8-tetrahydropyrido[4,3-d]pyrimidine Monohydrate] | 40 | – | –
CCCN(CCC)c1nc2c(c(-c3ccc(C)cc3)n1)CN(C(C)=O)CC2 [Example 25, 6-Acetyl-5,6,7,8-tetrahydro-4-(4-methylphenyl) -2-dipropylaminopyrido[4,3-d]-pyrimidine Monohydrate] | 40 | – | –
CCN(CC)CCN1CCc2nc(N)nc(-c3ccc(F)cc3)c2C1 [Example 26, 2-Amino-6-(2-diethylaminoethyl)-4-(4-fluorophenyl)-5,6,7,8-tetrahydropyrido[4,3-d]pyrimidine Trihydrochloride] | 80 | – | –
CN(C)CCCN1CCc2nc(N)nc(-c3ccc(F)cc3)c2C1 [Example 27, Trihydrochloride] | – | ~7 | –
